From patent US9168297B2, “Regulation of skin pigmentation by neuregulin-1 (NRG-1)” (The United States of America, as Represented by the …, priority 2010, dated 2015)
Residues, ends and D or L forms follow the SMILES beside them. *: point of attachment. Cbz = O=C(OCc1ccccc1)*

Legend:
HEM-DP melanocytes = assay: Melanin content assay (melanin/protein); assay type: cell-based, human; settings: for Pigmentation: 8-mer peptides 100 nM, every day for 9 days, vs vehicle
Description: FIGS. 6A and 6B are bar graphs illustrating the effect of NRG-1 on the pigmentation of cultured human melanocytes. FIG. 6A) Lightly-pigmented (HEM-LP) and FIG. 6B) Darkly-pigmented (HEM-DP) melanocytes were treated with or without NRG-1 (50 ng/ml) for 1, 3, 5 or 9 days and proteins were extracted from each sample. After centrifugation at 10,000 g for 15 minutes, precipitates were analyzed for melanin content, and the supernatants were analyzed for protein content. Results are the average of three studies±SD; statistically significant differences are indicated.
FIGS. 9A and 9B are digital images illustrating the effect of pan-ERBB inhibitors on NRG-1 action on human melanocytes and MelanoDerms. FIG. 9A) HEM-DP melanocytes were treated for 9 days with 50 ng/ml NRG-1 in the presence of C39 (0.5 μM) or CI-1033 (2 μM) or vehicle (DMSO) alone. The results are the averages of 3 independent studies±SD. FIG. 9B) Dark MelanoDerms were treated for 9 days with 50 ng/ml NRG-1 in the presence of C39 (0.5 μM) or CI-1033 (2 μM) or vehicle (DMSO) alone. L values shown are the average of 3 spots measured in the center of each Melanoderm.
Melanin contents were determined by dissolving cell pellets overnight at room temperature in 200 μl 1 N NaOH, and melanin concentrations were quantitated by absorbance at 405 nm in a SpectraMax 250 ELISA reader (Molecular Devices) using a standard curve generated from synthetic melanin (Sigma-Aldrich, St. Louis, Mo.). Melanin content is expressed as μg melanin per μg protein. Each study was repeated at least three times.
The effects of NRG-1 on the pigmentation of human melanocytes were also examined. […] However, on day 9, when the cells had reached confluence, the pigmentation level of NRG-1-treated HEM-LP melanocytes was about 35% higher than the control (FIG. 6A).
The EGF domain of NRG-1 can activate the NRG-1 receptors. Two exemplary EGF domains of NRG-1 were aligned (SEQ ID NOs: 9 and 10) and 5 different […] peptides within these two sequences were designed (FIG. 12). Darkly-pigmented human epidermal melanocytes (HEM-DP) were treated with each of the […] peptides (100 nM) or the commercially available rhNRG-1 (6.25 nM) or the vehicle only (0.1% BSA in PBS) every other day for 7 days.
In particular, HEM-DP were treated with each of the 8-mer peptides (WC-6, […], amino acids 3-10 of SEQ ID NO: 10; WC-7, […], amino acids 8-15 of SEQ ID NO: 10; WC-8, […], amino acids 12-19 of SEQ ID NO: 10; WC-9, […], amino acids 16-23 of SEQ ID NO: 10; WC-10, […], amino acids 20-27 of SEQ ID NO: 10; 100 nM) or the full length EGF domain of NRG-1 (WC-11, SEQ ID NO: 10, 100 nM) or the commercially available rhNRG-1 (SEQ ID NO: 11, 6.25 nM) or vehicle only (0.1% BSA in PBS) every day for 9 days.

MelanoDerm Skin Model = assay: Melanogenesis in MelanoDerm skin model, L-[14C]tyrosine assay; assay type: cell-based, human; settings: 30 μM lipoic acid, positive control, means ± SEM, Control 100%
Source text: Fibroblasts regulate the distinctive pigmented and thick morphology of skin on the palms and soles compared to the remainder of the body via a factor they secrete termed DKK1. […] [table]

[1] = tested on: MelanoDerm 3-D reconstructed human skin; assay: Pigmentation of 3-D reconstructed skin (MelanoDerm), L value and microscopy; assay type: cell-based; settings: dark MelanoDerms, 9 days, NRG-1 50 ng/ml with C39 0.5 μM or CI-1033 2 μM, vs control
Description: Light, Medium, and Dark human epidermal equivalents (MelanoDerm®) were purchased from MatTek Corp. (Ashland, Mass.). MelanoDerms were grown at the air/liquid interface of the maintenance medium MEL-LLMM (MatTek Corp.), and the culture medium was renewed every 2 days. Where noted, MelanoDerms were treated for 9 days with 50 ng/ml NRG-1 (rhNRG-1-β1, R&D Systems, Minneapolis, Minn.) prepared in phosphate-buffered saline (PBS) with 0.1% bovine serum albumin (BSA) and MelanoDerm maintenance medium. The same concentrations of PBS and BSA were used for mock-treated controls.
For the studies where the MelanoDerms were treated with NRG-1 and/or various pan-ERBB inhibitors, Dark MelanoDerms were first incubated with a pan-ERBB inhibitor (0.5 μM Compound 39, EMD Chemicals, Gibbistown, N.J. or 2 μM CI-1033, Selleck Chemicals LLC, US) for 30 minutes or with vehicle (DMSO) only before treatment with 50 ng/ml NRG-1; identical amounts of DMSO (0.02%) were added to all samples. Treatment was renewed every 2 days in fresh medium and was continued for 9 days.
Three dimensional (3-D) reconstructed human skin models (termed MelanoDerms) were used to test the effects of NRG-1 on skin pigmentation. Three types of MelanoDerm, ‘light’ ([…]), ‘medium’ ([…]) and ‘dark’ ([…]), were used to compare the effects of NRG-1 on those three types of skin. In preliminary studies to optimize the concentration of NRG-1 (from 10 to 200 ng/ml were tested, FIG. 10), 50 ng/ml was chosen which was consistent with concentrations of NRG-1 used for other cell types by other groups. NRG-1 was added to the MelanoDerm media at 50 ng/ml and the medium was replenished every 2 days. On day 9, the MelanoDerms treated with NRG-1 were compared to controls treated only with vehicle. Pigmentation of the skin was assessed using the L value, higher L values indicating lighter colors. […] It should be noted that relatively small changes in ΔL can represent relatively large changes in visible skin color. For example, the mean L value of White/Caucasian skin is 67, that of Asians, Pacific-Islanders is 65, that of Hispanic/Latinos is 64, and that of American Indian/Alaska Native is 62. […] In the vehicle-treated control MelanoDerms, melanin pigment was more evenly distributed throughout the entire epidermis and no visible melanin accumulation was observed around melanocytes (FIG. 3B). […] Therefore, NRG-1 leads to visible increases in pigmentation in the MelanoDerms which was greater as the skin had more constitutive pigmentation.

ERBB2 = ERBB2 protein level by western blotting in melanocytes; assay type: cell-based, human; settings: HEM-LP and HEM-DP, NRG-1 50 ng/ml together with MG132 120 nM
Description: FIGS. 7A and 7B are digital images illustrating expression of ERBBs after NRG-1 treatment. FIG. 7A) HEM-LP and HEM-DP melanocytes were treated with or without NRG-1 (50 ng/ml) for 5 days, and levels of ERBB2, ERBB3 or ERBB4 were detected by western blotting. Results shown are representative of three studies. FIG. 7B) Expression of ERBB2 was examined in HEM-LP and in HEM-DP melanocytes after 1 or 9 days or treatment with NRG-1 compared to vehicle-treated controls; the results are representative of two independent studies.
FIGS. 8A and 8B are digital images illustrating the mechanism of ERBB2 abrogation after NRG-1 treatment. FIG. 8A) ERBB2 mRNA levels in HEM-LP and in HEM-DP melanocytes were detected by RT-PCR after treatment with or without NRG-1 (50 ng/ml) for 1 day. FIG. 8B) MG132 (120 nM) was added to the melanocyte culture medium to inhibit proteasomal degradation during treatment of HEM-LP and HEM-DP melanocytes with or without NRG-1 (50 ng/ml). Proteins were extracted for each sample, and ERBB2 levels were detected by western blotting. Results are representative of three studies.
Fibroblast cultures in 100-mm dishes were solubilized in appropriate volumes of M-PER mammalian protein extraction reagent (Pierce Biotechnology, Rockford, Ill.) containing a Protease Inhibitor mixture (Roche, Mannheim, Germany) and phosphatase inhibitors. The protein concentration of each extract was measured using a BCA protein assay kit (Pierce, Rockford, Ill.). Cell extracts (20 μg) were separated on 8-16% gradient SDS polyacrylamide gels (Invitrogen, Carlsbad, Calif.), after which proteins were transferred to PVDF membranes (Invitrogen, Carlsbad, Calif.). Membranes were blocked for 1 hour in PBS or Tris buffered saline (TBS) containing 0.1% Tween 20 and 5% (w/v) nonfat dry milk powder and were incubated overnight at 4° C. with the primary antibody in PBS containing 0.1% Tween 20 and 2.5% (w/v) nonfat dry milk powder or in 0.1% Tween-TBS with 5% BSA, depending on the antibody. The following primary antibodies were used: anti-human DKK-1 (0.2 μg/ml), anti-human DKK-3 (0.1 μg/ml), anti-human bFGF (0.1 μg/ml), anti-human SCF (0.1 μg/ml), anti-human mouse monoclonal ERBB3 (1 μg/ml) and anti-human mouse monoclonal ERBB4 (2 μg/ml) antibodies from R&D Systems, neuregulin-1α/β1/2 (C-20) (1:500) and GAPDH (FL-335) (1:10,000) antibodies from Santa Cruz Biotechnology, ERBB2 rabbit monoclonal (1:1000) and phospho-Akt (Ser473) (1:1000) antibodies from Cell Signaling Technology. Membranes were then incubated with an HRP-linked anti-rabbit antibody (GE Healthcare) at 1:10,000 dilution or with an anti-goat antibody (DAKO) at 1:2,000 dilution at room temperature for 1 hour. Antigen-antibody complexes were detected using an ECL-plus Western blotting detection system (GE Healthcare). […]

In the case of “WC-03: 16-mer NRG-1 peptide including amino acids 8-23 of SEQ ID NO: 9 (FMVKDLSNPSRYLCKC)”, the “Pigmentation (melanin) compared to control” value (HEM-DP melanocytes; 16-mer peptides 100 nM, every other day for 7 days, n=4) is reported as “highest increase in pigmentation”.
For “WC-9: 8-mer peptide PSRYLCKC, amino acids 16-23 of SEQ ID NO: 10”, the Pigmentation (HEM-DP melanocytes) was “statistically significant increases of pigmentation”.
`O=C(O)CCCC[C@@H]1CCSS1` (racemic) [Lipoic acid, lipoic acid] showed a Melanogenesis (MelanoDerm Skin Model) of 2 ± 2%.
With “WC-10: 8-mer peptide LCKCPNEF, amino acids 20-27 of SEQ ID NO: 10” the Pigmentation (HEM-DP melanocytes) was “statistically significant increases of pigmentation”.
With `C=CC(=O)Nc1cc2c(Nc3ccc(F)c(Cl)c3)ncnc2cc1OCCCN1CCOCC1` [CI-1033, reference compound] the “Pigmentation of MelanoDerms, NRG-1 in the presence of ERBB inhibitor” value [1] was “did not increase the pigmentation”, the “Melanin content, inhibitor alone” value (HEM-DP melanocytes; 9 days, C39 0.5 μM or CI-1033 2 μM alone) was “did not affect” and the “Melanin content, NRG-1 in the presence of ERBB inhibitor” value (HEM-DP melanocytes; 9 days, NRG-1 50 ng/ml with C39 0.5 μM or CI-1033 2 μM) was “remained at the same level as the control”.
With `CC(C)C[C@@H](C=O)NC(=O)[C@H](CC(C)C)NC(=O)[C@H](CC(C)C)NC(=O)OCc1ccccc1` [MG132, reference compound] (Cbz-Leu-Leu-Leu-aldehyde) the “Level of ERBB2 protein” value (ERBB2) was “returned to the control level”.
